Experiments:
[1] = molecular target: T1, ESb mouse lymphoma heparanase (Mus musculus, UniProt Q6YGZ1); experiment: Inhibition of heparanase activity (degradation of labeled ECM heparan sulfate); type: biochemical; conditions: 24 hours incubation with labeled ECM
T1 construct: endogenous in cells; host or cells: ESb mouse lymphoma cells
T1 sequence (Q6YGZ1 28-535): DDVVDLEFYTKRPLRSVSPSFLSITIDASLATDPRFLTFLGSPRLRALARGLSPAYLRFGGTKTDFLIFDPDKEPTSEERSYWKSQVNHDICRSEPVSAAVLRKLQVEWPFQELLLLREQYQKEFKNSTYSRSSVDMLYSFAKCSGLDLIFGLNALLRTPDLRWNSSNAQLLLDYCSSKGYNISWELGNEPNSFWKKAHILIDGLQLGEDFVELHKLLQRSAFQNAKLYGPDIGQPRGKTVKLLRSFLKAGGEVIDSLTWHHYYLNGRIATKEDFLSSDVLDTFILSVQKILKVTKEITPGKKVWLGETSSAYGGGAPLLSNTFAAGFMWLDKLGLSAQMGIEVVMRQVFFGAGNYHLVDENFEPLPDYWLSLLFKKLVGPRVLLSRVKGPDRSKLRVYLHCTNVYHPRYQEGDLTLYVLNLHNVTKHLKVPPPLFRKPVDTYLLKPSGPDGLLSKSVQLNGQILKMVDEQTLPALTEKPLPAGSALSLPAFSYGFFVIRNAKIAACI
Experimental: Heparanase is an endoglucuronidase capable of degrading […] (HS) at specific intrachain sites.
The ability of compounds of the present invention to inhibit lymphomacell derived heparanase is tested in the assay system described by Vlodavsky et al., Cancer Research 43, 2704-2711 (1983). […] labeled ECM is incubated for 24 hours with ESb mouse lymphoma heparanase in the presence of various concentrations of the oligomers tested. Degradation of the HS is followed by gel filtration of the supematants. Heparanase activity is expressed as the total amount of labeled low-molecular-weight fragments released from the EMC substrate.

normal pooled plasma = experiment: Anticoagulation activity, Activated Partial Thromboplastin Time (APTT) test; conditions: concentration required to double clotting time
Experimental: The following test measures anticoagulant activity of the oligomers of the present invention and utilizes the Activated Partial Thromboplastin Time (APTT) test, with the following procedures.
To an assay cuvette is added 100 µl of normal pooled plasma (George King Biomedical Inc., Kansas) and […] of a solution containing the test compound in aqueous 50 mM Tris hydrochloride at pH 7.5 (0.2 mg of sample in one ml buffer). The sample is placed in a MLA coagulation timer which automatically maintains the sample at 37°C for 2.5 minutes, 100 µl of actin activated cephaloplastin reagent is injected, kept 5 minutes, 100 µl of 35 mM CaCI is injected, and clot formation is determined photometrically and the clotting time recorded. Each example is examined at a variety of concentrations, generally from about .025 mg/ml to about 1 mg/ml, and the clotting times are graphed as a function of concentration. From the graphic results, the concentration required to double clotting time (ICDCT) is calculated by linear interpolation.

[2] = test system: human fixed thrombin activated platelets; experiment: Platelet aggregation inhibition (fibrinogen-induced); type: cell-based; conditions: human fibrinogen added
Experimental: The method for measuring platelet aggregation inhibition is essentially that of Ruggeri, et al., Proc. Natl. Acad. Sci. USA, 83, 5708-5712 (1986), using formalin-fixed platelets as prepared by Plow, et al., Proc. Natl. Acad. Sci. USA, 79, 3711-3715 (1982). A given amount of the compound of the present invention or other compound to be tested (10 to 100 µl of a 1 mg/ml solution) is incubated at 37°C with 400 µl of human fixed thrombin activated platelets for 2 minutes. 12.5 µl of human fibrinogen solution is added and aggregation is monitored using a platelet aggregation profiler (Model PAP-4). Controls consist of fibrinogen added to incubated platelets and the resulting aggregation is considered as 100%. Percent inhibition in the presence of a given concentration of test compound versus concentration of the compound is plotted and the concentration required to give 50% inhibition (IC50) is determined.

[3] = test system: Vascular smooth muscle cells (VSMC); experiment: Smooth Muscle Cell DNA Synthesis Assay (3H-thymidine incorporation in response to PDGF); type: cell-based, swine; conditions: inhibition of incorporation of 3H-thymidine in response to PDGF (9 ng/ml)
Experimental: Vascular smooth muscle cells (VSMC) are isolated from swine coronaries obtained from swine hearts (Hatfield Meat Packing, Hatfield, PA) by enzyme dissociation as described by Gunther, et al., in J. Cell. Biol. 92, 289 (1982). Hyaluronidase (0.5 mg/ml) is added to facilitate dispersal. Cells are maintained in Earle's modified minimal essential medium (EMEM) with D-valine substituted for L-valine, supplemented with Hepes (10 mM), fetal bovine serum (FBS) (10%), penicillin (100 U/ml) and streptomycin ( 100 µg/ml).
The VSMC (passage 2) are plated at a density of 3 x 10^4 /cm2 (1x10^4 cells/well of 96 well tray) and after 48 hours of normal growth are arrested by replacement of above media with serum-free media for 48 hours consisting of: EMEM: Hams F12 (1:1), insulin, 5 µg/ml; transferrin, 35 µg/ml; selenite, 5 ng/ml; antibiotics and buffer (as above). The oligomer of the present invention to be tested (.01-10 µM) is added 2 hours prior to addition of porcine platelet derived growth factor (Research and Diagonostics, Minneapolis, MN), or FBS,in fresh serum-free media. Twenty-four hours later the oligomers are again added preceding addition of growth factors by 2 hours. […]
The VSMC are pulsed (5 hours) with ^3H-thymidine (Amersham, Arlington Heights, IL) (1 µCi/well of a 96 well plate; 42 Ci/mmole) added 15-18 hours after the last dose of growth factor. DNA synthesis is determined in NaOH extraction of ethanol/ether fixed cells as reported by Nemecek, et al., PNAS 83, 674 (1986). The cells are washed with phosphate bufferred saline (200 µl/well of 96-well tray. The cells are incubated with trichloroacetic acid (TCA) (10%, 200 ul) for 5 minutes to remove cytoplasmic label. After a rapid wash with cold 10% TCA, cells are fixed with ethanol/ether (2:1, 200 µl/well 5 min) and dried. The labeled DNA is extracted with 0.5 N NaOH (200 µl/well 30 min incubation, room temperature). The extracted DNA is neutralized (0.5 N HCI) and counted by liquid scintillation.
Statistical evaluation is as reported by Bilder, et al., Am. […] IC50 values are calculated by linear regression (RPL of RS1) from % inhibition of a minimum of 3 log fold dilutions of oligomers in the presence of PDGF (9 ng/ml) which give 70-80% of a maximal PDGF response. […] Percent inhibition is calculated by comparing the effect of PDGF alone (vehicle treated cultures + PDGF minus vehicle treated cultures without PDGF) to the effect of oligomers (oligomer + PDGF minus oligomer alone) and divided by the effect of PDGF times 100. i.e., = % inhibition = ((ΔVehicle + PDGF) - (Δoligomer + PDGF)/(Δvehicle + PDGF)) x 100.

For `Cc1cc(O)c(Cc2cc(O)c(Cc3cc(O)c(Cc4cc(O)c(Cc5cc(O)c(Cc6cc(O)c(Cc7cc(O)c(Cc8cc(O)c(Cc9cc(O)c(Cc%10cc(O)c(Cc%11cc(O)c(Cc%12cc(O)c(Cc%13cc(O)c(Cc%14cc(O)c(Cc%15cc(O)c(Cc%16cc(O)ccc%16CCC(=O)O)cc%15CCC(=O)O)cc%14CCC(=O)O)cc%13CCC(=O)O)cc%12CCC(=O)O)cc%11CCC(=O)O)cc%10CCC(=O)O)cc9CCC(=O)O)cc8CCC(=O)O)cc7CCC(=O)O)cc6CCC(=O)O)cc5CCC(=O)O)cc4CCC(=O)O)cc3CCC(=O)O)cc2CCC(=O)O)cc1CCC(=O)O` [Ex 2, Step 26], the “% Inhibition of Heparanase Activity (5µg/ml)” value [1] was 68%, the “APTT ICDCT” value (normal pooled plasma) was 35 µg/mL and the “Platelet Aggregation IC50” value [2] was 250 µg/mL. For the same molecule, the IC50 [3] was 40 nM.

Source: patent EP0585371B1, “AROMATIC OLIGOMERIC COMPOUNDS USEFUL AS MIMICS OF BIOACTIVE MACROMOLECULES” (RHONE-POULENC RORER INTERNATIONAL (HOLDINGS) INC., priority 1991, dated 1992)
